Assay results as given in patent US20100317073A1, “MOLECULAR APPROACHES FOR THE OPTIMIZATION OF BIOFUEL PRODUCTION” (The Ohio State University Research Foundation, priority 2007, published 2010).

Test system: Chlorella protothecoides
Test: Growth of Chlorella protothecoides in glycerol supplemented media: growth and total lipid yield
Type: cell-based
Details: glycerol supplemented medium
From the text: Note that Chlorella protothecoides growth is enhanced by glycerol; a byproduct of biodiesel.

For `OCC(O)CO` [glycerol], the increase in growth was “at least 10 fold” and the total lipid yield was “enhanced”.
